We go through one compound from publication PMC12823440, “Inhibitors supercharge kinase turnover through native proteolytic circuits” (Nature, 2025).

Among the targets are ABL1 (Homo sapiens, UniProt P00519); ABL2 (Homo sapiens, UniProt P42684); BTK (Homo sapiens, UniProt Q06187).
Common to all, as to assay: biochemical
For another assay, the target named is T1, MAP4K3 (Homo sapiens, UniProt Q8IVH8).
T1 sequence (Q8IVH8 1-894): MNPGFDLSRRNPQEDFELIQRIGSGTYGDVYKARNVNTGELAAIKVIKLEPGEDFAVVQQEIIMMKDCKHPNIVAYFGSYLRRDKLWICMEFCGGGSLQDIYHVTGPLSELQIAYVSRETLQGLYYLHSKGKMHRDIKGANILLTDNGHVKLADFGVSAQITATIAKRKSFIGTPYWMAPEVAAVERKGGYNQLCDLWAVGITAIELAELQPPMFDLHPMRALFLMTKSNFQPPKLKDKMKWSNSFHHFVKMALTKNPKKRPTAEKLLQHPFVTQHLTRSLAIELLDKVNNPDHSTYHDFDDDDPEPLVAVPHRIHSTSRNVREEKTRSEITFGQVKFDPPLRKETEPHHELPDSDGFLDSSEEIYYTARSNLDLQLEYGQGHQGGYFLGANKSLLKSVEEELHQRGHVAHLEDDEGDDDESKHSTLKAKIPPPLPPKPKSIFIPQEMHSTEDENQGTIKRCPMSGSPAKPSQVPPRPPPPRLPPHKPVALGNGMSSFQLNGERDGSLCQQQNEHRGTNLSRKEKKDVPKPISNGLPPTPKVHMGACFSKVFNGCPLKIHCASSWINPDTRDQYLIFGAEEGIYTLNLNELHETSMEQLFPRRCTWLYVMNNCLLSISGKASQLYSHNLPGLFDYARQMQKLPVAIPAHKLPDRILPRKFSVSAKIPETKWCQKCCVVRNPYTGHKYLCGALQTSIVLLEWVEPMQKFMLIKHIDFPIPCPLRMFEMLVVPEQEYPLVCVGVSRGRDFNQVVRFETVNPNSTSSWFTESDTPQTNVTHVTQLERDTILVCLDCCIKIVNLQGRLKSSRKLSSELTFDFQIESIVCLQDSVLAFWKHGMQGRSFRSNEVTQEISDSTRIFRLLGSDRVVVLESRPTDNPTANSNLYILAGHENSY

ABL2, sequence (P42684 whole entry): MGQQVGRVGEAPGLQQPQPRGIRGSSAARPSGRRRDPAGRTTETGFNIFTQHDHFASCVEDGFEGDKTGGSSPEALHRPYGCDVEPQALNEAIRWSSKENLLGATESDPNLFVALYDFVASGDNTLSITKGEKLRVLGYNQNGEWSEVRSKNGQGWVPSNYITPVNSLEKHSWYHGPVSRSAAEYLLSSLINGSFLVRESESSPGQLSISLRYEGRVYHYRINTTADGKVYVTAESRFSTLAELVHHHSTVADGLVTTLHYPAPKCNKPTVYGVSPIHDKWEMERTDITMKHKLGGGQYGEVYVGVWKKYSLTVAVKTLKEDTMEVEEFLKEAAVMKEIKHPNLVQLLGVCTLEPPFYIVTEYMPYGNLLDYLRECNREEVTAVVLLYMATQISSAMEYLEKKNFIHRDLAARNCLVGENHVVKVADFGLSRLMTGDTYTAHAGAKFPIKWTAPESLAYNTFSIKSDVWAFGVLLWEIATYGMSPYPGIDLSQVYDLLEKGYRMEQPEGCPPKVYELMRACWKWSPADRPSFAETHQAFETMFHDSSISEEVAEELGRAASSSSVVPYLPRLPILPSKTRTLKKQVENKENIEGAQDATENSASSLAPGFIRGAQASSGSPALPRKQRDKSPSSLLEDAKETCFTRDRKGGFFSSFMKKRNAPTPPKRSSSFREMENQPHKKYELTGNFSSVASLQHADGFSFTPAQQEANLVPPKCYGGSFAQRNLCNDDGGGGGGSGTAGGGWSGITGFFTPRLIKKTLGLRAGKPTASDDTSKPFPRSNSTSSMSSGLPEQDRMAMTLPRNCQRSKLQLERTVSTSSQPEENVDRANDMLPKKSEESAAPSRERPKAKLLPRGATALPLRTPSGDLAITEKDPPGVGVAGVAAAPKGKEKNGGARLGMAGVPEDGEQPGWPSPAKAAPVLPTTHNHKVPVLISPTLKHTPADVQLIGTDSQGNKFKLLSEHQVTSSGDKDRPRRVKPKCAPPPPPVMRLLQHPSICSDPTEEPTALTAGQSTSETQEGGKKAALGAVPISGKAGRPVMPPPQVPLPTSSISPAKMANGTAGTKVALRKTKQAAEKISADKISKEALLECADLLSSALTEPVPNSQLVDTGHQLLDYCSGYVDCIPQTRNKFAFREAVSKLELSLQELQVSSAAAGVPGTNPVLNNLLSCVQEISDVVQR
ABL1, sequence (P00519 whole entry): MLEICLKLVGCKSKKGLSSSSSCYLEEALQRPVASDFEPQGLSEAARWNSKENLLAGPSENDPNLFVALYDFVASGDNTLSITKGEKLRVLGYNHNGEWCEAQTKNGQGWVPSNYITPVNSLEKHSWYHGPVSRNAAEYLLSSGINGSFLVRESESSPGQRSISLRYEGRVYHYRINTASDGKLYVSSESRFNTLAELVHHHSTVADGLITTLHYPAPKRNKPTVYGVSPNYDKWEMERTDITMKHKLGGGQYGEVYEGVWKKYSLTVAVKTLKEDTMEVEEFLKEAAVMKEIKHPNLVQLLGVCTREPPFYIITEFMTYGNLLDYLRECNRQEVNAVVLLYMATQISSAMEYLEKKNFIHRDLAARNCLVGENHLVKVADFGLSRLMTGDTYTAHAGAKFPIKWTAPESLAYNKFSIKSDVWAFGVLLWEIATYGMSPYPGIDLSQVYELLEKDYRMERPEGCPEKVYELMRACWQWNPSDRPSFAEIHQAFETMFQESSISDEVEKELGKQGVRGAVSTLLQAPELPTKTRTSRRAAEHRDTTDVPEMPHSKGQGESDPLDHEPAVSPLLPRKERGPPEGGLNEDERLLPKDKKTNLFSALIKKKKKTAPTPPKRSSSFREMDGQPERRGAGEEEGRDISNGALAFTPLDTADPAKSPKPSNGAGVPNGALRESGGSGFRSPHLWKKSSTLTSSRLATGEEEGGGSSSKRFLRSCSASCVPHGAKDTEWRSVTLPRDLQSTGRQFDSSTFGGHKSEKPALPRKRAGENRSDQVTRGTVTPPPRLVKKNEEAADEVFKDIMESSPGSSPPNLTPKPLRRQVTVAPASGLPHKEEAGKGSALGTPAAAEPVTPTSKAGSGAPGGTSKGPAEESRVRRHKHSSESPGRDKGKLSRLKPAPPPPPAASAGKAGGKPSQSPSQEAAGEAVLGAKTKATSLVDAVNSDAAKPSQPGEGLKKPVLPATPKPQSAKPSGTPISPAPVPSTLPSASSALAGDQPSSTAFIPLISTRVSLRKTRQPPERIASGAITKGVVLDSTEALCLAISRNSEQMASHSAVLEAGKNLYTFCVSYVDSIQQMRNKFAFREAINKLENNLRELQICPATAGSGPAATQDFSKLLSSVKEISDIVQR
BTK, sequence (Q06187 whole entry): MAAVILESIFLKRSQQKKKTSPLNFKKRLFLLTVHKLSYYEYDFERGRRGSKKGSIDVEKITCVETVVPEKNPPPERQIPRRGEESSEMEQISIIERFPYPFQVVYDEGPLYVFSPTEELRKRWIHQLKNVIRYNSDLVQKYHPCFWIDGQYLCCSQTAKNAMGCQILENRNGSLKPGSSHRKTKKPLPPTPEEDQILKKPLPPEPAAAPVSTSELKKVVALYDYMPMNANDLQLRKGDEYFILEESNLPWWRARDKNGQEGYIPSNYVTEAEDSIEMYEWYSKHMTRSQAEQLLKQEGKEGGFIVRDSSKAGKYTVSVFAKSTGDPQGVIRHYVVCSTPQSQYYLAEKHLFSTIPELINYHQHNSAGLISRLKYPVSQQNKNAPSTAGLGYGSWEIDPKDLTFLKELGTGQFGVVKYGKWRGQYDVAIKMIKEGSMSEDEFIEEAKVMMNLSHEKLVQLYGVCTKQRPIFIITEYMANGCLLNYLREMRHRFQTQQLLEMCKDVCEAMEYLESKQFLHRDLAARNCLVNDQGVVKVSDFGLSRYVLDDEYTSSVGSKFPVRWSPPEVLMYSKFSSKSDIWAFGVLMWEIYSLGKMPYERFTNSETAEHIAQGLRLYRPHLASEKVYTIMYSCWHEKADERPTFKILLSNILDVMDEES

Regarding `COc1ccc2c(C(=O)Nc3ccc(NC(=O)c4nn(C5CCN(C(=O)CC(C)(C)C#N)CC5)c5ccc(F)cc45)cc3Cl)cnn2c1` [SI-3], the Kd at ABL1 is 0.353 µM; on ABL2, 0.0402 µM; on MAP4K3 it was 9.7 µM; at BTK, 3.08 µM.

Usually Kd stands for the equilibrium constant for the complex coming apart. A high value points to lower affinity.
